Measured values reported in US11136313B2, “Compounds, compositions, and methods for modulating CFTR” (Proteostasis Therapeutics, Inc., priority 2015, dated 2021).

Biological target: T1, ΔF508-CFTR (Homo sapiens, UniProt P13569, DEL508-508)
T1 construct: Primary lung epithelial cells homozygous for the Cystic Fibrosis-causing ΔF508 mutation were differentiated for a minimum of 4 weeks; endogenous in cells; host or cells: primary lung epithelial cells (hBE) homozygous for ΔF508, differentiated at an air-liquid interface
Experiment: hBE equivalent current (Ieq) assay: AUC of equivalent chloride current after forskolin/VX-770 in primary lung epithelial cells homozygous for ΔF508
Assay type: cell-based
Conditions: relative to CFTR amplifier (Compound A)+VX-809 (3 uM), compound at 10 uM and Compound A at 3 uM, 24 h treatment
Method in brief: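 ΔF508/ΔF508 primary human bronchial epithelia, differentiated ≥4 weeks at air-liquid interface, treated basolaterally with compound for 24 h at 37 °C. Transepithelial voltage and conductance by 24-channel current clamp at 36 °C: benzamil, then forskolin plus VX-770 for 27 min, then bumetanide; AUC of equivalent chloride current over vehicle.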

T1 sequence (P13569 with tags, fused parts or gaps DEL508-508): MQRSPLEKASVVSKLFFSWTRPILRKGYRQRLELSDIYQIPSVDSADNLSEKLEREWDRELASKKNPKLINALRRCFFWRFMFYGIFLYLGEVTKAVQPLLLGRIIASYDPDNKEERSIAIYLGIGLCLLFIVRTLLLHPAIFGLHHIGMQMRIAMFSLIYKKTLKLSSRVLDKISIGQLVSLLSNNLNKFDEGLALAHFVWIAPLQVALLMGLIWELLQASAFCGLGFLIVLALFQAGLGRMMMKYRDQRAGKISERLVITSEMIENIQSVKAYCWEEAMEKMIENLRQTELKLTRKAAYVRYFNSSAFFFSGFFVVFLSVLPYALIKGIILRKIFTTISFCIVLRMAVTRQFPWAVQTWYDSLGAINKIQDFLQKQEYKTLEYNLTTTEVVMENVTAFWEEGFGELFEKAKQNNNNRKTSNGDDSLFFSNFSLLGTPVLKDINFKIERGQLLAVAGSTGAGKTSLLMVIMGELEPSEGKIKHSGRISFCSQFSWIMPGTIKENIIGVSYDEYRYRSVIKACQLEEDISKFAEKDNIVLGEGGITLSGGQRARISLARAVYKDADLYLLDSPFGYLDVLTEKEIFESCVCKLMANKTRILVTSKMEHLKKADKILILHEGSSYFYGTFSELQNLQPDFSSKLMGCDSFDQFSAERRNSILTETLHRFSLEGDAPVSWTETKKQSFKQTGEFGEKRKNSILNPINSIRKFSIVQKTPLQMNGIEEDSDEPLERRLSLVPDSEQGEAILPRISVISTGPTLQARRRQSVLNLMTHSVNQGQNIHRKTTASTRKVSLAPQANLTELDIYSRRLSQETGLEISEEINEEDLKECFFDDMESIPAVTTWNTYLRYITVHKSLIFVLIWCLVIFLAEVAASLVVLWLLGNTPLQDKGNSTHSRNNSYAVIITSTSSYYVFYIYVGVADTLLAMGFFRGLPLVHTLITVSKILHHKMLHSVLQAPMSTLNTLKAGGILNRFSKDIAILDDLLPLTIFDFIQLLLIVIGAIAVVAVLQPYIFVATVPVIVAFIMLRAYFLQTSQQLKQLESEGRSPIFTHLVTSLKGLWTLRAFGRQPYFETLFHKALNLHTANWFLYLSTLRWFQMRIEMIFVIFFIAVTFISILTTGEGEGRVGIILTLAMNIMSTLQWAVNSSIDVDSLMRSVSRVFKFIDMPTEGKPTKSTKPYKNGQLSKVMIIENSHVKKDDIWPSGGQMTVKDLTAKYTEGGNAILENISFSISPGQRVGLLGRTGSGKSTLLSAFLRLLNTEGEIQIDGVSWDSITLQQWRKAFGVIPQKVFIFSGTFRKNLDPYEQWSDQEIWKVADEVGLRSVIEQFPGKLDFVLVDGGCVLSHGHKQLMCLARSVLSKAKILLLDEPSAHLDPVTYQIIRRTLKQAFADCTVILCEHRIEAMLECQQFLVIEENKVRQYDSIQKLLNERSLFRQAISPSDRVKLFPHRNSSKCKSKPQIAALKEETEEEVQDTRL

SMILES	Activity
Cc1c(-c2cc(C(=O)[O-])c3c(O[C@H]4CCC[C@@H](C)C4)ccc(C)c3n2)sc2ccccc12.[Na+] [Compound 219, Sodium 8-Methyl-2-(3-methyl-1-benzothiophen-2-yl)-5-[[(1S,3R)-3-methylcyclohexyl]oxy]quinoline-4-carboxylic acid]	++ (activity>50% of CFTR amplifier+VX-809 (3 uM) with compound at 10 uM and Compound A at 3 uM)
Cc1c(-c2cc(C(=O)[O-])c3c(O[C@H]4CCC[C@H](C)C4)ccc(C)c3n2)sc2ccccc12.[Na+] [Compound 220, Sodium 8-Methyl-2-(3-methyl-1-benzothiophen-2-yl)-5-[[(1S,3S)-3-methylcyclohexyl]oxy]quinoline-4-carboxylate]	++ (activity>50% of CFTR amplifier+VX-809 (3 uM) with compound at 10 uM and Compound A at 3 uM)
Cc1ccc([C@H](C)Oc2ccc(C)c3nc(-c4sc5ccccc5c4C)cc(C(=O)[O-])c23)cc1.[Na+] [Compound 227, Sodium 8-Methyl-2-(3-methyl-1-benzothiophen-2-yl)-5-[(1S)-1-(4-methylphenyl)ethoxy]quinoline-4-carboxylate]	++ (activity>50% of CFTR amplifier+VX-809 (3 uM) with compound at 10 uM and Compound A at 3 uM)
Cc1c(-c2cc(C(=O)[O-])c3c(O[C@H](C)c4ccc(S(C)(=O)=O)cc4)ccc(C)c3n2)oc2ccccc12.[Na+] [Compound 229, Sodium 5-[(1R)-1-(4-methanesulfonylphenyl)ethoxy]-8-methyl-2-(3-methyl-1-benzofuran-2-yl)quinoline-4-carboxylate]	++ (activity>50% of CFTR amplifier+VX-809 (3 uM) with compound at 10 uM and Compound A at 3 uM)
Cc1c(-c2cc(C(=O)[O-])c3c(O[C@@H](C)c4ccc(S(C)(=O)=O)cc4)ccc(C)c3n2)oc2ccccc12.[Na+] [Compound 230, Sodium 5-[(1S)-1-(4-methanesulfonylphenyl)ethoxy]-8-methyl-2-(3-methyl-1-benzofuran-2-yl)quinoline-4-carboxylate]	++ (activity>50% of CFTR amplifier+VX-809 (3 uM) with compound at 10 uM and Compound A at 3 uM)
Cc1c(-c2cc(C(=O)[O-])c3c(O[C@H](C)c4ccc(C#N)cc4)ccc(C)c3n2)oc2ccccc12.[Na+] [Compound 233]	++ (activity>50% of CFTR amplifier+VX-809 (3 uM) with compound at 10 uM and Compound A at 3 uM)
Cc1c(-c2cc(C(=O)[O-])c3c(O[C@@H](C)c4ccc(C#N)cc4)ccc(C)c3n2)oc2ccccc12.[Na+] [Compound 234]	++ (activity>50% of CFTR amplifier+VX-809 (3 uM) with compound at 10 uM and Compound A at 3 uM)
Cc1c(-c2cc(C(=O)[O-])c3c(O[C@H](C)c4ccc(OC(F)F)cc4)ccc(C)c3n2)oc2ccccc12.[Na+] [Compound 235]	++ (activity>50% of CFTR amplifier+VX-809 (3 uM) with compound at 10 uM and Compound A at 3 uM)
Cc1c(-c2cc(C(=O)[O-])c3c(O[C@@H](C)c4ccc(OC(F)F)cc4)ccc(C)c3n2)oc2ccccc12.[Na+] [Compound 236]	++ (activity>50% of CFTR amplifier+VX-809 (3 uM) with compound at 10 uM and Compound A at 3 uM)
Cc1c(-c2cc(C(=O)[O-])c3c(O[C@H](C)c4ccc(S(N)(=O)=O)cc4)ccc(C)c3n2)oc2ccccc12.[Na+] [Compound 237, Sodium 8-Methyl-2-(3-methyl-1-benzofuran-2-yl)-5-[(1R)-1-(4-sulfamoylphenyl)ethoxy]quinoline-4-carboxylate]	+ (activity<50% of an CFTR amplifier (Compound A)+VX-809 (3 uM) with compound at 10 uM and Compound A at 3 uM)
Cc1c(-c2cc(C(=O)[O-])c3c(O[C@@H](C)c4ccc(S(N)(=O)=O)cc4)ccc(C)c3n2)oc2ccccc12.[Na+] [Compound 238, Sodium 8-Methyl-2-(3-methyl-1-benzofuran-2-yl)-5-[(1S)-1-(4-sulfamoylphenyl)ethoxy]quinoline-4-carboxylate]	++ (activity>50% of CFTR amplifier+VX-809 (3 uM) with compound at 10 uM and Compound A at 3 uM)
